From ChEMBL document CHEMBL3046004, “Esterase-mediated resistance to pyrethroids in field populations of Helicoverpa armigera (Lepidoptera: Noctuidae) from Central Africa” (2009) come the findings set out here.

Molecules are shown by their SMILES.

Common to all, as to assay type: functional
In assay [1] the test system is Helicoverpa armigera. In words: Resistance factor, ratio of LD50 for fourth-instar larval stage of Helicoverpa armigera field strain Pitoa isolated from maize plant to LD50 for fourth-instar larval stage of pyrethroid-susceptible Helicoverpa armigera laboratory strain BK-77.
Assay [2] has as its system Helicoverpa armigera. The experiment in a line: Resistance factor, ratio of LD50 for fourth-instar larval stage of Helicoverpa armigera field strain Ngong to LD50 for fourth-instar larval stage of pyrethroid-susceptible Helicoverpa armigera laboratory strain BK-77.
The subject of assay [3] is Helicoverpa armigera. In words: Insecticidal activity against fourth-instar larval stage of Helicoverpa armigera field strain Pitoa isolated from maize plant assessed as mortality applied topically onto thorax measured after 48 hr.
Assay [4] concerns Helicoverpa armigera. In words: Insecticidal activity against fourth-instar larval stage of pyrethroid-resistance Helicoverpa armigera laboratory strain GS-RR06 assessed as mortality applied topically onto thorax measured after 48 hr.
Assay [5] deals with Helicoverpa armigera. In words: Insecticidal activity against fourth-instar larval stage of Helicoverpa armigera field strain Gaschiga isolated from tomato plant assessed as mortality applied topically onto thorax measured after 48 hr.
Assay [6] deals with Helicoverpa armigera. In words: Insecticidal activity against fourth-instar larval stage of pyrethroid-susceptible Helicoverpa armigera laboratory strain BK-77 assessed as mortality applied topically onto thorax measured after 48 hr.
The test system of assay [7] is Helicoverpa armigera. The experiment in a line: Resistance factor, ratio of LD50 for fourth-instar larval stage of Helicoverpa armigera field strain Gaschiga isolated from tomato plant to LD50 for fourth-instar larval stage of pyrethroid-susceptible Helicoverpa armigera laboratory strain BK-77.
Assay [8] relates to Helicoverpa armigera. In words: Resistance factor, ratio of LD50 for fourth-instar larval stage of Helicoverpa armigera field strain Tchollire to LD50 for fourth-instar larval stage of pyrethroid-susceptible Helicoverpa armigera laboratory strain BK-77.
Assay [9] has as its system Helicoverpa armigera. In words: Insecticidal activity against fourth-instar larval stage of Helicoverpa armigera field strain Pitoa isolated from tomato plant assessed as mortality applied topically onto thorax measured after 48 hr.
Assay [10] deals with Helicoverpa armigera. In words: Insecticidal activity against fourth-instar larval stage of Helicoverpa armigera field strain Ngong isolated from cotton plant assessed as mortality applied topically onto thorax measured after 48 hr.
In assay [11] the test system is Helicoverpa armigera. The experiment in a line: Insecticidal activity against fourth-instar larval stage of Helicoverpa armigera field strain Tchollire isolated from cotton plant assessed as mortality applied topically onto thorax measured after 48 hr.
The test system of assay [12] is Helicoverpa armigera. In words: Resistance factor, ratio of LD50 for fourth-instar larval stage of pyrethroid-resistance Helicoverpa armigera laboratory strain GS-RR06 to LD50 for fourth-instar larval stage of pyrethroid-susceptible Helicoverpa armigera laboratory strain BK-77.
Assay [13] relates to Helicoverpa armigera. The experiment in a line: Resistance factor, ratio of LD50 for fourth-instar larval stage of Helicoverpa armigera field strain Pitoa isolated from tomato plant to LD50 for fourth-instar larval stage of pyrethroid-susceptible Helicoverpa armigera laboratory strain BK-77.

Regarding `Clc1ccc(C(c2ccc(Cl)cc2)C(Cl)(Cl)Cl)cc1` [CHLOROPHENOTHANE], the Ratio was found to be 1.9 in assay [1]; 1.4 in [2]; 1.4 in [7]; 1 in assay [8]; 1 in assay [12]; 1.3 in [13]. The LD50 was determined as 48.9 microgAi/g in assay [3]; 26.1 microgAi/g in assay [4]; 37.4 microgAi/g in assay [5]; 24.3 microgAi/g in [6]; 34.8 microgAi/g in [9]; 36.8 microgAi/g in assay [10]. In addition, in [11], the LD50 is 26.7 microgAi/g.
In the case of `CC1(C)[C@H](C(=O)O[C@H](C#N)c2cccc(Oc3ccccc3)c2)[C@@H]1C=C(Br)Br` [DELTAMETHRIN], the Ratio in assay [1] was 590; in [2], 134; in [7], 316; in assay [8], 60; in assay [12], 2972; in assay [13], 756. In addition, the LD50 is listed as 29.5 microgAi/g in assay [3]; 148.6 microgAi/g in assay [4]; 15.8 microgAi/g in assay [5]; 0.05 microgAi/g in assay [6]; 37.8 microgAi/g in assay [9]; 6.7 microgAi/g in [10]. For the same compound, the LD50 in [11] is 3 microgAi/g.
As to `O=S1OCC2C(CO1)C1(Cl)C(Cl)=C(Cl)C2(Cl)C1(Cl)Cl` (configuration not stated) [ENDOSULFAN], the Ratio is 1 in assay [1]; 0.1 in [2]; 0.7 in assay [7]; 0.7 in assay [12]; 1 in assay [13]. Moreover, the LD50 in assay [3] was determined as 37.9 microgAi/g; in assay [4], 27.5 microgAi/g; in assay [5] it was 25.9 microgAi/g; in [6] it was 37.6 microgAi/g; in assay [9], 36.2 microgAi/g; in assay [10], 34 microgAi/g.
`CCOc1ccc(C(C)(C)COCc2cccc(Oc3ccccc3)c2)cc1` [ETOFENPROX]: the Ratio amounted to 5 in [1]; 2 in assay [2]; 4 in assay [7]; 3 in [8]; 2 in [12]; 10 in assay [13]. Further, the LD50 in assay [3] is given as 285.3 microgAi/g; in [4] it was 135.7 microgAi/g; in [5] it was 229.3 microgAi/g; in assay [6], 55.5 microgAi/g; in assay [9], 531.4 microgAi/g; in assay [10] it was 136.6 microgAi/g. Besides, in assay [11], the LD50 stood at 152.2 microgAi/g.
With `COC(=O)N(C(=O)N1CO[C@@]2(C(=O)OC)Cc3cc(Cl)ccc3C2=N1)c1ccc(OC(F)(F)F)cc1` [INDOXACARB], the Ratio was 1.1 in assay [1]; 1.4 in assay [2]; 0.4 in assay [7]; 1 in [12]; 2 in assay [13]. The LD50 in assay [3] is reported as 0.7 microgAi/g; in [4], 0.7 microgAi/g; in assay [5] it was 0.3 microgAi/g; in [6], 0.7 microgAi/g; in [9], 1.3 microgAi/g; in assay [10] it was 0.9 microgAi/g.
Regarding `CCCSP(=O)(OCC)Oc1ccc(Br)cc1Cl` (configuration not stated) [PROFENOFOS], the Ratio in [1] is reported as 4.2; in assay [2], 4; in assay [7], 5.3; in assay [12] it was 3.9; in assay [13], 7.9. The LD50 in assay [3] was found to be 19.5 microgAi/g; in assay [4], 17.7 microgAi/g; in assay [5] it was 24.3 microgAi/g; in assay [6] it was 4.6 microgAi/g; in assay [9] it was 36.2 microgAi/g; in [10] it was 18.5 microgAi/g.
